Data published in US9249194B2 (priority 2009, dated 2016).

How the values were obtained:
Assay type in all cases: cell-based
[1] = test system: SH-SY5Y human neuroblastoma cells
[2] = test system: SH-SY5Y human neuroblastoma cells; remark: listed apart in the source
[3] = test system: SH-SY5Y human neuroblastoma cells; remark: listed apart in the source

Compound: OO [H2O2, hydrogen peroxide]
- neurite retraction after hydrogen peroxide treatment [1]: neurites shorten

Compound: CCCC(=O)Nc1ncnc2c1ncn2[C@@H]1O[C@@H]2COP(=O)(O)O[C@H]2[C@H]1OC(=O)CCC [db-cAMP, dibutyril c-AMP]
- elongation / length of the neurites [2]: triggers elongation of neurites

Compound: lysophosphatidic acid [LPA]
- length / collapsing of neurites with increasing doses of LPA [3]: linear retraction of the length of the neurites
- neurites after LPA treatment (retraction or preservation) [3]: retraction of the neurites
